Measurements as given in PubChem BioAssay AID743388 (Vanderbilt Specialized Chemistry Center, 2014).
Active and inactive are the calls of the source. No rule for the calls is given here.

Target: Phospholipase D1 (Homo sapiens) (UniProt Q13393)
Assay: cellular phospholipase D1 activity inhibition – cell-based (AID 743388)
Settings: Calu-1 cells, PMA-stimulated, PtdBuOH-d9 by mass spectrometry, 30 min; at 20 µM; hits give high values

Chain of Phospholipase D1 (Homo sapiens) (Q13393 whole entry, looked up): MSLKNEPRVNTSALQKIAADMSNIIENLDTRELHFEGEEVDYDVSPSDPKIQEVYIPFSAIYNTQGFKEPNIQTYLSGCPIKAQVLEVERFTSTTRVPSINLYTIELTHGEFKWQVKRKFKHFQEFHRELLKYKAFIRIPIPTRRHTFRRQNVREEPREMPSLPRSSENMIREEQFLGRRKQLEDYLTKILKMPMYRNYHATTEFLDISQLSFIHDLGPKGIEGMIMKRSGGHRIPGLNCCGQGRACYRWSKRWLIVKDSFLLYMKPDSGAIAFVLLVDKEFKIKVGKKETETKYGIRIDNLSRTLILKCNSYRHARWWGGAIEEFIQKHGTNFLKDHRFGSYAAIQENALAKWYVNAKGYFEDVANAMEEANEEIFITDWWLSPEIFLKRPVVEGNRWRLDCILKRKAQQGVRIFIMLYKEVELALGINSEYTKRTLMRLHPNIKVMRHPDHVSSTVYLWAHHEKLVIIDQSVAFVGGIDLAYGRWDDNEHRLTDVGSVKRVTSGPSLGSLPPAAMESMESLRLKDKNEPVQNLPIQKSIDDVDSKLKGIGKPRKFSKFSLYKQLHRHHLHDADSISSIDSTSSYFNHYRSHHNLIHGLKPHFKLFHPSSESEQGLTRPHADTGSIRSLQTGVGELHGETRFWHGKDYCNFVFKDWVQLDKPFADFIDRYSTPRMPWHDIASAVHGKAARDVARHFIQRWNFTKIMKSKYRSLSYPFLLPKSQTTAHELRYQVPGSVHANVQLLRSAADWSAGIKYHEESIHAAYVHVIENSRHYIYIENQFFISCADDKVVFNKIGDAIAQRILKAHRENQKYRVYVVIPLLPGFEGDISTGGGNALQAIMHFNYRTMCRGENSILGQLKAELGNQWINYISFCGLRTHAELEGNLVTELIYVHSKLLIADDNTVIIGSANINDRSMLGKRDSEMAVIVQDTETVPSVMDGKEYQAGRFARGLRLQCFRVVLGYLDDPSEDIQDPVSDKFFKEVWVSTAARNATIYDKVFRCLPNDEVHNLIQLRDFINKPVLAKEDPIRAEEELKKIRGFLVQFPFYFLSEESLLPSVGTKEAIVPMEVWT

SMILES	inhibition
O=C(NCCN1CCC2(CC1)C(=O)NCN2c1cncc(F)c1)c1ccc2ccccc2c1	14% (inactive)
O=C(NCCN1CCC2(CC1)C(=O)NCN2Cc1ccncc1)c1ccc2ccccc2c1	53%
O=C(NCCN1CCC2(CC1)C(=O)NCN2c1cccnc1)c1ccc(Br)cc1	0% (inactive)
O=C(NCCN1CCC2(CC1)C(=O)NCN2Cc1cccnc1)c1ccc(Cl)cc1F	0% (inactive)
O=C(NCCN1CCC2(CC1)C(=O)NCN2c1cncc(Br)c1)c1ccc2ccccc2c1	9% (inactive)
Cc1cc(C)c2cc(C(=O)NCCN3CCC4(CC3)C(=O)NCN4Cc3cccnc3)[nH]c2c1	13% (inactive)
O=C(NCCN1CCC2(CC1)C(=O)NCN2Cc1cccnc1)c1cc2cc(F)ccc2[nH]1	4% (inactive)
Cn1c(C(=O)NCCN2CCC3(CC2)C(=O)NCN3Cc2cccnc2)cc2ccccc21	10% (inactive)
COc1cccc(C(=O)N2CNC(=O)C23CCN(CCNC(=O)c2ccc4ccccc4c2)CC3)c1	50%
O=C(NCCN1CCC2(CC1)C(=O)NCN2Cc1cccnc1)c1cc2ccccc2o1	14% (inactive)
O=C(NCCN1CCC2(CC1)C(=O)NCN2Cc1cccnc1)c1cccc2cccnc12	4% (inactive)
O=C(NCCN1CCC2(CC1)C(=O)NCN2Cc1cccnc1)c1cccs1	3% (inactive)
O=C(NCCN1C=CC2(CC1)C(=O)NCN2Cc1cccnc1)c1cccc2nsnc12 (centres undefined)	9% (inactive)
O=C(NCCN1CCC2(CC1)C(=O)NCN2c1ccnc(Cl)c1)c1ccc2ccccc2c1	0% (inactive)
O=C(NCCN1CCC2(CC1)C(=O)NCN2Cc1cccnc1)c1sc2ncccc2c1-n1cccc1	29% (inactive)
O=C(NCCN1CCC2(CC1)C(=O)NCN2Cc1ccccc1Br)c1ccc2ccccc2c1	96%
O=C(NCCN1CCC2(CC1)C(=O)NCN2c1cccnc1)c1ccc(F)c(F)c1	16% (inactive)
O=C(NCCN1CCC2(CC1)C(=O)NCN2Cc1cccnc1)c1ccc(SC(F)(F)F)cc1	5% (inactive)
O=C(NCCN1CCC2(CC1)C(=O)NCN2Cc1cccnc1)c1cccc(C(F)(F)F)c1	0% (inactive)
O=C(NCCN1CCC2(CC1)C(=O)NCN2Cc1cccnc1)c1cc(F)cc(F)c1	0% (inactive)

SMILES	inhibition
Cc1cc(Br)cnc1C(=O)NCCN1CCC2(CC1)C(=O)NCN2Cc1cccnc1	0% (inactive)
O=C(NCCN1CCC2(CC1)C(=O)NCN2Cc1cccnc1)c1ccc(F)c(F)c1	3% (inactive)
COc1cc(C(=O)NCCN2CCC3(CC2)C(=O)NCN3Cc2cccnc2)cc(OC)c1OC	0% (inactive)
O=C(NCCN1CCC2(CC1)C(=O)NCN2Cc1cccnc1)c1ccc2ccccc2c1Br	10% (inactive)
O=C(NCCN1CCC2(CC1)C(=O)NCN2Cc1cccnc1)c1ccc(F)cc1	3% (inactive)
O=C(NCCN1CCC2(CC1)C(=O)NCN2c1ccc(C(F)(F)F)nc1)c1ccc2ccccc2c1	2% (inactive)
O=C(NCCN1CCC2(CC1)C(=O)NCN2C(=O)C1CCC1)c1ccc2ccccc2c1	80%
O=C(NCCN1CCC2(CC1)NCNC2=O)c1ccc2ccccc2c1	7% (inactive)
Cc1ccc(S(=O)(=O)NCCN2CCC3(CC2)C(=O)NCN3Cc2cccnc2)cc1	0% (inactive)
O=C(NCCN1CCC2(CC1)C(=O)NCN2Cc1cccnc1)c1cccc(Cl)c1	0% (inactive)
O=C(NCCN1CCC2(CC1)C(=O)NCN2Cc1cccnc1)c1ccc(Cl)cc1Cl	0% (inactive)
O=C(NCCN1CCC2(CC1)C(=O)NCN2Cc1cccnc1)c1ccc2cc(F)ccc2c1	9% (inactive)
O=C(NCCN1CCC2(CC1)C(=O)NCN2Cc1cccnc1)[C@@H]1C[C@H]1c1ccccc1	23% (inactive)
O=C(NCCN1CCC2(CC1)C(=O)NCN2c1cncc(F)c1)c1ccc(F)cc1	25% (inactive)
O=C(NCCN1CCC2(CC1)C(=O)NCN2Cc1cccnc1)c1cccc(F)c1	2% (inactive)
O=C(NCCN1CCC2(CC1)C(=O)NCN2c1cccnc1)c1cc(F)c(F)c(F)c1	6% (inactive)
Cc1cc(N2CNC(=O)C23CCN(CCNC(=O)c2ccc4ccccc4c2)CC3)ccn1	7% (inactive)
O=C(NCCN1CCC2(CC1)C(=O)NCN2Cc1cccc2ccccc12)c1ccc2ccccc2c1	94%
O=C(NCCN1CCC2(CC1)C(=O)NCN2Cc1cccnc1)c1nc(-c2ccc(F)cc2)no1	30% (inactive)
